# What was measured:
# Assay type in all cases: cell-based
# SH-SY5Y cells = assay: Neurite outgrowth (neuroregeneration) test procedure in SH-SY5Y cells; details: SH-SY5Y cells pretreated with aphidicolin 5 days, mean ± SEM
# Excerpt: The neuroregeneration activity for the compounds of this invention was confirmed in a standard pharmacological test procedure by evaluating rapamycin dialdehyde (Example 1) and rapamycin 29-enol (Example 2), as representative compounds of this invention, against SH-SY5Y cells in vitro [Gold et al., Exp Neurol 147:269-278, 1997]. Briefly, SH-SY5Y cells were placed in 6-well plate treated with aphidicolin for 5 days followed by the test compounds using 6-well plates. For controls, wells were untreated, or treated with nerve growth factor (NGF) alone. Test wells were treated with NGF plus Example 1 and Example 2, or rapamycin. Cells were photographed at 168 hours. Analysis of neuritic lengths was performed on photographic prints using a Houston Instrument HI-PAD digitizing tablet connected to an IBM XT computer with appropriate software (Bioquant IV, R&M Biometrics, Nashville, Tenn.). Mean values for axonal areas were compared using by ANOVA (STATVIEW, Abacus Concepts, Inc., Berkeley, Calif.). The following table summarizes the results that were obtained.
# 3T3 (ovarian) = assay: Antineoplastic activity, tumor cell growth inhibition (sulforhodamine B), 3T3; details: 48 hours; for Antineoplastic Activity (IC50): 3T3 cells; for IC50: Mus musculus, NIH3T3, 3T3 cells
# Excerpt: (§1) Antineoplastic activity for the compounds of this invention was confirmed by evaluating the antineoplastic activity of representative compounds of this invention (Examples 1-5) against six tumor cell lines in vitro. Briefly, tumor cells from six cell lines were placed in wells of a 96 well microtiter plate. The following tumor cell lines were used: 3T3 (ovarian), 3T3/H2N (ovarian—resistant to cis-platin), A431 (vulva epidermoid origin), SW620 (colon), SKBR3 (breast), and MDA-435 (breast). The tumors cells were grown in the presence of serial dilutions of the compound to be evaluated for 48 hours, and cell growth determined using a calorimetric procedure (sulforhrodamine B). The inhibition of growth was calculated compared to the number of cells at the time of test compound addition.
# MDA-435 (breast) = assay: Antineoplastic activity, tumor cell growth inhibition (sulforhodamine B), MDA-435; details: MDA435 cells, 48 hours
# Excerpt: as §1
# [1] = tested on: 3T3/H2N (ovarian—resistant to cis-platin); assay: Antineoplastic activity, tumor cell growth inhibition (sulforhodamine B), 3T3/H2N; details: 3T3/H2N cells, 48 hours
# Excerpt: as §1
# SW620 (colon) = assay: Antineoplastic activity, tumor cell growth inhibition (sulforhodamine B), SW620; details: 48 hours; for Antineoplastic Activity (IC50): SW620 cells; for IC50: Homo sapiens, SW-620, SW620 cells
# Excerpt: as §1
# [2] = tested on: A431 (vulva epidermoid origin); assay: Antineoplastic activity, tumor cell growth inhibition (sulforhodamine B), A431; details: 48 hours; for Antineoplastic Activity (IC50): A431 cells; for IC50: Homo sapiens, A-431, A431 cells
# Excerpt: as §1
# SKBR3 (breast) = assay: Antineoplastic activity, tumor cell growth inhibition (sulforhodamine B), SKBR3; details: 48 hours; for Antineoplastic Activity (IC50): SKBR3 cells; for IC50: Homo sapiens, SK-BR-3, SKBR3 cells
# Excerpt: as §1
Molecule,Mean Neurite Length after 168 h (SH-SY5Y cells; test compound + NGF),Antineoplastic Activity (IC50) (3T3 (ovarian)) [µg/mL],Antineoplastic Activity (IC50) (MDA-435 (breast)) [µg/mL],Antineoplastic Activity (IC50) [1] [µg/mL],Antineoplastic Activity (IC50) (SW620 (colon)) [µg/mL],Antineoplastic Activity (IC50) [2] [µg/mL],Antineoplastic Activity (IC50) (SKBR3 (breast)) [µg/mL],further results
CO[C@H]1C[C@@H]2CC[C@@H](C)[C@@](O)(O2)C(=O)C(=O)N2CCCC[C@H]2C(=O)O[C@H]([C@H](C)C[C@@H]2CC[C@@H](O)[C@H](OC)C2)CC(=O)[C@H](C)/C=C(\C)[C@@H](O)[C@@H](OC)C(=O)[C@H](C)C[C@H](C)/C=C/C=C/C=C/1C [Rapamycin],261.4 ± 13.1 (n = 119) μm,–,–,–,–,–,–,–
42-O-(2-Hydroxy)ethyl rapamycin 29-enol [V],–,>5,>5,4.96,>5,>5,2.69,–
Rapamycin 29-enol [Example II],239.7 ± 10.0 (n = 155) μm,>5,>5,>5,>5,>5,>5,–
"CO[C@@H]1[C@H](O)C2(C)OOC1([C@H](C)C[C@H](C)/C=C/C=O)O2 (stereo partly drawn) [III, (2E,4S,6R)-6-[(5S,6R)-5-Hydroxy-6-methoxy-4-methyl-2,3,7-trioxabicyclo[2.2.1]hept-1-yl]-4-methylhept-2-enal]",–,–,–,–,–,–,–,IC50 (3T3 (ovarian)): 4.11 µg/mL; IC50 (MDA-435 (breast)): 4.13 µg/mL; IC50 [1]: > 5 µg/mL; IC50 (SW620 (colon)): > 5 µg/mL; IC50 [2]: 3.01 µg/mL; IC50 (SKBR3 (breast)): 2.05 µg/mL
"CO[C@@H](C[C@@H]1CC[C@@H](C)[C@](O)(C(=O)C(=O)N2CCCC[C@H]2C(=O)O[C@@H](CC(=O)[C@H](C)/C=C(\C)[C@@H](O)[C@@H](OC)C(=O)[C@H](C)C[C@H](C)/C=C/C=O)[C@H](C)CC2CC[C@@H](O)[C@H](OC)C2)O1)/C(C)=C/C=O (stereo partly shown) [Example I, Rapamycin Dialdehyde]",229.8 ± 9.5 (n = 141) μm,–,–,–,–,–,–,IC50 (3T3 (ovarian)): 0.72 µg/mL; IC50 (MDA-435 (breast)): 1.23 µg/mL; IC50 [1]: 0.68 µg/mL; IC50 (SW620 (colon)): 1.41 µg/mL; IC50 [2]: 0.91 µg/mL; IC50 (SKBR3 (breast)): 0.52 µg/mL
"NGF: nerve growth factor (NGF), used alone as control and together with test compounds",–,–,–,–,–,–,–,Mean Neurite Length after 168 h (SH-SY5Y cells; NGF alone): 196.5 ± 7.7 (n = 112) μm
42-O-(2-Hydroxy)ethyl rapamycin dialdehyde [IV],–,1.5,1.1,0.72,3.04,2.64,0.36,–
